For 46 compounds, Ki results are on record in patent publication US8173635B2, “Kinase inhibitors” (Vertex Pharmaceuticals Incorporated, priority 2007, dated 2012).

What all share (format): biochemical
In one assay the target is PKC delta kinase (Homo sapiens, UniProt Q05655). As to the kind of experiment: PKC delta kinase inhibition, coupled-enzyme NADH absorbance assay (Ki). Conditions: 150 μM ATP, 46 nM PKC delta, 30° C.; read-out: Ki PKC delta. In outline:
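Assay buffer was 100 mM HEPES pH 7.5, 10 mM MgCl2, 25 mM NaCl, 0.1 mM EDTA, 0.01% Brij. Enzyme buffer was equilibrated with compound in DMSO for 10 min at 30 °C. Ki values were derived by non-linear regression of initial rate data.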

For a further assay, the target named is PKC alpha kinase (Homo sapiens, UniProt P17252). The experiment in a line: PKC alpha kinase inhibition, coupled-enzyme NADH absorbance assay (Ki). As to conditions: 130 μM ATP, 4.5 nM PKC alpha, 30° C.; read-out: Ki PKC alpha.
The target of another assay is PKC theta kinase (Homo sapiens, UniProt Q04759). The experiment in a line: PKC theta kinase inhibition, coupled-enzyme NADH absorbance assay (Ki). Conditions: 240 μM ATP, 18 nM PKC theta, 30° C.; read-out: Ki PKC theta. In a few lines:
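Enzyme and compound equilibrated 10 min at 30 °C before reaction in HEPES pH 7.5 buffer with MgCl2, NaCl, EDTA and Brij. Activity tracked as NADH loss at 340 nm through a coupled system. Initial-rate data fitted by non-linear regression to give Ki.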

Chain of PKC delta kinase (Q05655 whole entry): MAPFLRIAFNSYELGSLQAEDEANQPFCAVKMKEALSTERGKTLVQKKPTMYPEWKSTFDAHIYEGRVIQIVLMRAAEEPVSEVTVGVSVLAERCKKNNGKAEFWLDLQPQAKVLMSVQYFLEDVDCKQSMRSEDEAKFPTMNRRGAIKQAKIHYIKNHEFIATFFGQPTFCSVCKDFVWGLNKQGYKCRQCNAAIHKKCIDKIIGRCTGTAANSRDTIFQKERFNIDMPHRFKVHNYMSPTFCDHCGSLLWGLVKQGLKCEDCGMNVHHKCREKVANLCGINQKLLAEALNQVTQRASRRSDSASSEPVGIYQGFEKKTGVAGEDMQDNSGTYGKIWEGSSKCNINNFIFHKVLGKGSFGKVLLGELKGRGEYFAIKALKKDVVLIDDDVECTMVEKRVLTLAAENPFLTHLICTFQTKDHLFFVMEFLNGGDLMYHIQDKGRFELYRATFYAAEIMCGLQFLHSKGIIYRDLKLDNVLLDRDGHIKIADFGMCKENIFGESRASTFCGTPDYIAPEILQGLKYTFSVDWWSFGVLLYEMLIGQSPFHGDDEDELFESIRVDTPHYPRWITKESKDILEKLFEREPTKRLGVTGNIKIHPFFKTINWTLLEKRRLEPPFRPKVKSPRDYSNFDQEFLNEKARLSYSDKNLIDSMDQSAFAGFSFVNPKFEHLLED
Chain of PKC theta kinase (Q04759 whole entry): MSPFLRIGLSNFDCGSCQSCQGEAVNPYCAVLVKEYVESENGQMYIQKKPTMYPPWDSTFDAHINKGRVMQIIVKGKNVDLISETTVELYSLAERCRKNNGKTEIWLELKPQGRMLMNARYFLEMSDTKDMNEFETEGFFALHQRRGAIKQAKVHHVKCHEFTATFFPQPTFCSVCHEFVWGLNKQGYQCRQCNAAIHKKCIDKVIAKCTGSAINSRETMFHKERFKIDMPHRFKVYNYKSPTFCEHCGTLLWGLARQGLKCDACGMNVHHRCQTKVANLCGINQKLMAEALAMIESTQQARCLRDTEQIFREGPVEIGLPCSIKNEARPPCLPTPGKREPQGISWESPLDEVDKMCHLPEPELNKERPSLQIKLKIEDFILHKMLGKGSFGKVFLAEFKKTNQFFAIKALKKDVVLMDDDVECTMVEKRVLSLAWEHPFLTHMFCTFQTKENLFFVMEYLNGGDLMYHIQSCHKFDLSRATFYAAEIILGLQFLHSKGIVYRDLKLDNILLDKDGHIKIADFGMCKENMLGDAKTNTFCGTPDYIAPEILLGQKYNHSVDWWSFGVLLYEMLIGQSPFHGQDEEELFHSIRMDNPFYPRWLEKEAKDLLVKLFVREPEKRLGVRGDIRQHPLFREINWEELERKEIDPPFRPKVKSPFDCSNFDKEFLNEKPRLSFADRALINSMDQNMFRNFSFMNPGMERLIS

`OCC1(c2cccc(-c3ccnc4[nH]nc(C(F)(F)F)c34)c2)CC1` [Compound 290]: the Ki was less than 500 nM at PKC delta kinase, less than 2800 nM at PKC alpha kinase and less than 50 nM at PKC theta kinase.

Consider `CCC(C)(CN)c1cc(CCCF)cc(-c2ccnc3[nH]ncc23)c1` (stereo not drawn) [Compound 160], for which the Ki at PKC delta kinase is less than 2800 nM; at PKC alpha kinase, less than 500 nM; at PKC theta kinase, less than 50 nM.

On to `NCC1(c2cc(F)cc(-c3ccnc4[nH]nc(C(F)(F)F)c34)c2)CCC1` [Compound 274], for which the Ki is less than 500 nM on PKC delta kinase, less than 50 nM on PKC alpha kinase and less than 50 nM on PKC theta kinase.

Turning to `CCC(C)(C#N)c1cc(-c2ccnc3[nH]ncc23)cc(C(F)(F)CCC2CCCCC2)c1` (stereo not drawn) [Compound 118], the Ki on PKC delta kinase is more than 2000 nM; at PKC alpha kinase, more than 1200 nM; at PKC theta kinase, more than 700 nM.

Turning to `C=CCc1cc(-c2ccnc3[nH]ncc23)cc(C(C)(C)CN)c1` [Compound 52], the Ki at PKC delta kinase was less than 2800 nM; at PKC alpha kinase, less than 2800 nM; on PKC theta kinase, less than 500 nM.

For the compound `CCC(C)(C#N)c1cc(CCCO)cc(-c2ccnc3[nH]ncc23)c1` (stereo not drawn) [Compound 103], the Ki on PKC delta kinase is more than 2000 nM; on PKC alpha kinase, less than 2800 nM; at PKC theta kinase it was less than 50 nM.

Regarding `CCC(C)(C#N)c1cccc(-c2ccnc3[nH]ncc23)c1` (stereo not drawn) [Compound 64, 2-(3-(1H-pyrazolo[3,4-b]pyridin-4-yl)phenyl)-2-methylbutanenitrile], the values for the Ki on PKC delta kinase, on PKC alpha kinase and at PKC theta kinase were less than 2800 nM, less than 2800 nM and less than 500 nM, respectively.

As to `c1cc(-c2ccnc3[nH]ncc23)cc(C2CCNCC2)c1` [Compound 230], the Ki on PKC delta kinase, on PKC alpha kinase and at PKC theta kinase was less than 2800 nM each time.

As to `CC(C#N)(CC1CC1)c1cccc(-c2ccnc3[nH]ncc23)c1` (stereo not drawn) [Compound 80], the Ki at PKC delta kinase was more than 2800 nM; at PKC alpha kinase, less than 2800 nM; at PKC theta kinase, less than 500 nM.

Turning to `NCC1(c2cccc(-c3ccnc4[nH]nc(Cl)c34)c2)CCC1` [Compound 260], the Ki on PKC delta kinase was less than 50 nM; at PKC alpha kinase, less than 500 nM; at PKC theta kinase, less than 50 nM.

Turning to `CC(C)(C#N)c1cc(CN)cc(-c2ccnc3[nH]ncc23)c1` [Compound 76], the Ki was more than 2800 nM at PKC delta kinase, more than 2800 nM at PKC alpha kinase and less than 2800 nM on PKC theta kinase.

Consider `CCC(O)(c1cc(C)cc(-c2ccnc3[nH]nc(C(F)(F)F)c23)c1)C1CNC1` (stereo not drawn) [Compound 314], for which the results for the Ki on PKC delta kinase, at PKC alpha kinase and at PKC theta kinase were less than 500 nM, less than 2800 nM and less than 50 nM, respectively.

As to `C/C=C\c1cc(-c2ccnc3[nH]ncc23)cc(C(C)(CC)CN)c1` (stereo not drawn) [Compound 143], the Ki at PKC delta kinase was less than 500 nM; at PKC alpha kinase, less than 2800 nM; at PKC theta kinase it was less than 500 nM.

Regarding `CC1(c2cccc(-c3ccnc4[nH]ncc34)c2)CCNC1` (stereo not drawn) [Compound 195], the Ki is less than 500 nM on PKC delta kinase, less than 2800 nM on PKC alpha kinase and less than 50 nM on PKC theta kinase.

As to `CC(O)Cc1cc(-c2ccnc3[nH]ncc23)cc(C(C)(C)C#N)c1` (stereo not drawn) [Compound 79], the Ki at PKC delta kinase is more than 2800 nM; on PKC alpha kinase it was more than 2800 nM; at PKC theta kinase, less than 500 nM.

Turning to `CC(C#N)(CC(F)F)c1cccc(-c2ccnc3[nH]ncc23)c1` (stereo not drawn) [Compound 99], the Ki at PKC delta kinase is less than 2800 nM; on PKC alpha kinase, less than 2800 nM; on PKC theta kinase, less than 500 nM.

Regarding `CCC(C)(CN)c1cc(CC(C)C)cc(-c2ccnc3[nH]ncc23)c1` (stereo not drawn) [Compound 137], the Ki at PKC delta kinase was more than 2800 nM; on PKC alpha kinase, more than 2800 nM; on PKC theta kinase, less than 500 nM.

For `CCCC(C)(C#N)c1cccc(-c2ccnc3[nH]ncc23)c1` (stereo not drawn) [Compound 69], the Ki on PKC delta kinase was more than 2800 nM; on PKC alpha kinase, less than 2800 nM; on PKC theta kinase, less than 2800 nM.

As for `OCC1CCc2ccc(-c3ccnc4[nH]ncc34)cc21` (stereo not drawn) [Compound 203, (6-(1H-Pyrazolo[3,4-b]pyridin-4-yl)-2,3-dihydro-1H-inden-1-yl)methanol], the results for the Ki at PKC delta kinase, on PKC alpha kinase and on PKC theta kinase were more than 2800 nM, more than 2800 nM and less than 2800 nM, respectively.

For `CCC(C)(C#N)c1cc(CCO)cc(-c2ccnc3[nH]ncc23)c1` (stereo not drawn) [Compound 101], the figures for the Ki at PKC delta kinase, at PKC alpha kinase and on PKC theta kinase were more than 2800 nM, less than 2800 nM and less than 50 nM, respectively.

`NCC1(c2cc(F)cc(-c3ccnc4[nH]ncc34)c2)CCC1` [Compound 188]: the Ki at PKC delta kinase is less than 2800 nM; at PKC alpha kinase, less than 500 nM; at PKC theta kinase it was less than 50 nM.

Turning to `CCc1cc(-c2ccnc3[nH]ncc23)cc(C(C)(C)CN)c1` [Compound 44], the Ki was less than 2800 nM on PKC delta kinase, less than 2800 nM on PKC alpha kinase and less than 500 nM on PKC theta kinase.

`COCCC(C)(C#N)c1cccc(-c2ccnc3[nH]ncc23)c1` (stereo not drawn) [Compound 96]: the Ki at PKC delta kinase was more than 2800 nM; on PKC alpha kinase, more than 2800 nM; on PKC theta kinase, less than 2800 nM.

As for `CCC(C)(CN)c1cc(F)cc(-c2ccnc3[nH]nc(C(F)(F)F)c23)c1` (stereo not drawn) [Compound 277], the Ki on PKC delta kinase, on PKC alpha kinase and on PKC theta kinase was less than 50 nM each time.

As to `N#CC1(c2cc(-c3ccnc4[nH]ncc34)cc(C(F)(F)CCN)c2)CC1` [Compound 330], the Ki on PKC delta kinase is less than 500 nM; at PKC alpha kinase, less than 500 nM; on PKC theta kinase it was less than 50 nM.

For the compound `CCC(C)(C#N)c1cc(-c2ccnc3[nH]ncc23)cc(C(C)F)c1` (stereo not drawn) [Compound 105], the Ki on PKC delta kinase was more than 2000 nM; on PKC alpha kinase, less than 2800 nM; at PKC theta kinase, less than 500 nM.

For the compound `Cc1cc(-c2ccnc3[nH]ncc23)cc(C2(Cc3ccccc3)CNC(=O)O2)c1` (stereo not drawn) [Compound 327], the Ki is more than 1200 nM on PKC delta kinase, less than 2800 nM on PKC alpha kinase and less than 500 nM at PKC theta kinase.

Regarding `CCc1n[nH]c2nccc(-c3cc(F)cc(C4(CN)CCC4)c3)c12` [Compound 263], the Ki is less than 500 nM at PKC delta kinase, less than 50 nM on PKC alpha kinase and less than 50 nM on PKC theta kinase.

For `CCCc1cc(-c2ccnc3[nH]ncc23)cc(C(C)(CC)CN)c1` (stereo not drawn) [Compound 130], the Ki at PKC delta kinase is less than 2800 nM; on PKC alpha kinase it was less than 2800 nM; at PKC theta kinase it was less than 50 nM.

Regarding `NCC1(c2cccc(-c3ccnc4[nH]ncc34)c2)CCC1` [Compound 49], the Ki at PKC delta kinase is less than 500 nM; on PKC alpha kinase it was less than 2800 nM; on PKC theta kinase it was less than 50 nM.

As for `Cc1cc(-c2ccnc3[nH]nc(C(F)(F)F)c23)cc(C2(CN)CC2)c1` [Compound 282], the Ki is less than 500 nM on PKC delta kinase, less than 500 nM on PKC alpha kinase and less than 50 nM at PKC theta kinase.

Turning to `CC(CN)(Cc1cscn1)c1cccc(-c2ccnc3[nH]ncc23)c1` (stereo not drawn) [Compound 170], the results for the Ki on PKC delta kinase, at PKC alpha kinase and on PKC theta kinase were less than 2800 nM, less than 2800 nM and less than 50 nM, respectively.

For the compound `NCC1(c2cccc(-c3ccnc4[nH]ncc34)c2)COC1` [Compound 233], the values for the Ki at PKC delta kinase, on PKC alpha kinase and at PKC theta kinase were less than 2800 nM, more than 1200 nM and less than 500 nM, respectively.

For `N#CC1(c2cccc(-c3ccnc4[nH]nc(Cl)c34)c2)CC1` [Compound 205], the Ki on PKC delta kinase was less than 50 nM; on PKC alpha kinase it was less than 500 nM; at PKC theta kinase, less than 50 nM.

For the compound `CC#CCC(C)(C#N)c1cccc(-c2ccnc3[nH]ncc23)c1` (stereo not drawn) [Compound 104], the Ki is less than 2800 nM at PKC delta kinase, less than 2800 nM on PKC alpha kinase and less than 500 nM at PKC theta kinase.

`NCC1(c2cc(N)cc(-c3ccnc4[nH]ncc34)c2)CCC1` [Compound 190]: the Ki was more than 2000 nM on PKC delta kinase, more than 1200 nM at PKC alpha kinase and less than 500 nM at PKC theta kinase.

Turning to `CCc1n[nH]c2nccc(-c3cccc(C4(CN)COC4)c3)c12` [Compound 306], the Ki at PKC delta kinase was less than 500 nM; on PKC alpha kinase, more than 1200 nM; on PKC theta kinase, less than 50 nM.

`C1=C(c2cccc(-c3ccnc4[nH]ncc34)c2)CCNC1` [Compound 216]: the figures for the Ki on PKC delta kinase, on PKC alpha kinase and on PKC theta kinase were less than 2800 nM, less than 2800 nM and less than 500 nM, respectively.

With `CCC(N)c1cccc(-c2ccnc3[nH]ncc23)c1` (stereo not drawn) [Compound 245], the figures for the Ki at PKC delta kinase, at PKC alpha kinase and on PKC theta kinase were more than 1200 nM, more than 1200 nM and less than 500 nM, respectively.

On to `COCC(C)(CN)c1cccc(-c2ccnc3[nH]ncc23)c1` (stereo not drawn) [Compound 150], for which the Ki on PKC delta kinase was less than 500 nM; at PKC alpha kinase it was less than 2800 nM; on PKC theta kinase, less than 50 nM.

On to `C=CCC1(c2cc(C)cc(-c3ccnc4[nH]ncc34)c2)CN(C)C(=O)O1` (stereo not drawn) [Compound 326], for which the figures for the Ki at PKC delta kinase, at PKC alpha kinase and on PKC theta kinase were more than 1200 nM, more than 1200 nM and less than 500 nM, respectively.

For the compound `CCC(C)(CN)c1cc(C)cc(-c2ccnc3[nH]ncc23)c1` (stereo not drawn) [Compound 144], the results for the Ki on PKC delta kinase, on PKC alpha kinase and on PKC theta kinase were less than 500 nM, less than 500 nM and less than 50 nM, respectively.

As for `CCC(C)(CN)c1cccc(-c2ccnc3[nH]nc(Cl)c23)c1` (stereo not drawn) [Compound 204, 2-(3-(3-chloro-1H-pyrazolo[3,4-b]pyridin-4-yl)phenyl)-2-methylbutan-1-amine], the Ki at PKC delta kinase, at PKC alpha kinase and at PKC theta kinase was less than 50 nM each time.

Consider `N#C[C@]1(c2cccc(-c3ccnc4[nH]ncc34)c2)C[C@@H](N)C1` [Compound 249], for which the Ki on PKC delta kinase was less than 2800 nM; at PKC alpha kinase, less than 500 nM; at PKC theta kinase it was less than 50 nM.

For the compound `CCC(C)(CN)c1cc(-c2ccnc3[nH]ncc23)cc(C(C)F)c1` (stereo not drawn) [Compound 159], the Ki at PKC delta kinase was less than 2800 nM; at PKC alpha kinase, less than 2800 nM; at PKC theta kinase, less than 50 nM.

As to `N#CC1(c2cccc(-c3ccnc4[nH]ncc34)c2)CCCC1` [Compound 74], the figures for the Ki on PKC delta kinase, at PKC alpha kinase and at PKC theta kinase were less than 2800 nM, less than 2800 nM and less than 500 nM, respectively.
